Assay results: patent US9927424B2, “Assays for identifying compounds that modulate bitter taste” (Chromocell Corporation, priority 2013, dated 2018)

Legend:
[1] = biological target: T1, TAS2R13 (Homo sapiens, UniProt Q9NYV9); assay: Calcium fluorescence functional assay, TAS2R13 cell line with mouse Gα15; format: cell-based; conditions: for TAS2R13 bitter receptor activity (functional response): 20 mM tastant, change in intracellular calcium; for EC50: approximately, increasing concentrations of tastant
T1 construct: expressed in transfected cells
T1 sequence (Q9NYV9 1-303): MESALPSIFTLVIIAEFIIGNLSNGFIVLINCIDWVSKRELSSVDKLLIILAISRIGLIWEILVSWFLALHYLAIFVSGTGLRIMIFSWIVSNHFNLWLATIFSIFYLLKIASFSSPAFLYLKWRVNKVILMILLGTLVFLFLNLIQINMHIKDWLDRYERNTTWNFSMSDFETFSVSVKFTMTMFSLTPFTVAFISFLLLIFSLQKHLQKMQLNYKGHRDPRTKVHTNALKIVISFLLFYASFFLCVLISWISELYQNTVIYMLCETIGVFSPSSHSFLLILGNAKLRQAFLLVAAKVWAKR
Protocol: (§1) A panel of cell lines expressing eight specific bitter taste receptors, a subset of the panel of twenty-five bitter receptors described in International Patent Application Publication WO 2010/088633 (see, e.g., Example 26), was used for the purpose of these analyses. Accordingly, each cell line of the panel expressed a human bitter taste receptor and mouse Gα15 signaling protein.
(§2) Each of the Examples below utilized the following functional assay: • Day 1: Stable cell lines were seeded onto black wall/clear bottom 96-well, plates (e.g., Corning, 3904). Approximately 40K cells were added per well and incubated at 37° C., 5% CO2 overnight in cell growth media (DMEM (Sigma, D5796) supplemented with 10% Fetal Bovine Serum (Sigma, 5178), 2 mM Glutamine (Sigma, G7513)). • Day 2: Growth media was discarded and cells were incubated at 37° C., 5% CO2 for 60 minutes in 100 ul of load solution containing 1× Ca-3 dye (Molecular Devices, R8090), 1% DMSO in buffer containing 130 mM NaCl, 2 mM CaCl2, 5 mM KCl, 1.2 mM MgCl2, 10 mM HEPES and 10 mM Glucose (pH 7.0). Probenecid was not included in the load solution. • Functional assay: After dye loading, cell plates were placed in a fluorescent plate reader (e.g., FDSS6000 (Hamamatsu, Japan)) and receptor stimulation was measured by adding 50 ul of 3× concentrated ligand/agonist stock. Fluorescence was monitored continuously for 10 s before agonist addition and for 100-250 s after stimulation with agonist.
(§3) Receptor Activation is defined as follows: • % Activation=[((Maximum signal fluorescence−Minimum signal fluorescence)−(Maximum control fluorescence−Minimum control fluorescence))/(Maximum buffer fluorescence−Minimum buffer fluorescence)]*100 • Functional Response=[(Maximum signal fluorescence−Minimum signal fluorescence)−(Maximum control fluorescence−Minimum control fluorescence)] • Signal fluorescence: refers to the change in fluorescence seen with addition of ligand • Control fluorescence: refers to the change in fluorescence seen with addition of buffer (negative control) • Calcium signals from ligand and control were normalized to the basal fluorescence of the cells prior to the stimulation.
(§4) A concentration analysis was performed and EC50 values were calculated by nonlinear regression using the formula: Y=Bottom+(Top−Bottom)/(1+10^((Log EC50−X)*Hill Slope)), X=log of dose or concentration, Y=Response (increasing as X increases), Top=maximum signal, Bottom=minimum signal. EC50 (half maximal effective concentration) refers to the molar concentration of the agonist which produces 50% of the maximum possible effective response from that agonist.

[2] = biological target: T2, TAS2R14 (Homo sapiens, UniProt Q9NYV8); assay: Calcium fluorescence functional assay, TAS2R14 cell line with mouse Gα15; format: cell-based; conditions: for TAS2R14 bitter receptor activity (functional response): 20 mM tastant, change in intracellular calcium; for EC50: approximately, increasing concentrations of tastant
T2 construct: expressed in transfected cells
T2 sequence (Q9NYV8 1-317): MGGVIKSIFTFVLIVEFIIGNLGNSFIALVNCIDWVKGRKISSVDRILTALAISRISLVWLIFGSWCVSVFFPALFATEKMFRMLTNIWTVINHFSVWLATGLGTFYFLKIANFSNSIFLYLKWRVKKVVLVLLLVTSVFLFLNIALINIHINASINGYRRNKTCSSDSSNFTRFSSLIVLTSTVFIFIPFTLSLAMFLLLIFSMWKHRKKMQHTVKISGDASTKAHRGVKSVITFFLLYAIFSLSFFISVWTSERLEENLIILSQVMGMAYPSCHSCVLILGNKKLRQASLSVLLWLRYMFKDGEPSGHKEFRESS
Protocol: as §1, §2, §3, §4

[3] = biological target: T3, TAS2R38 (PAV) (Homo sapiens, UniProt P59533, A49P/I296V); assay: Calcium fluorescence functional assay, TAS2R38 (PAV) cell line with mouse Gα15; format: cell-based; conditions: for TAS2R38 (PAV) bitter receptor activity (functional response): 20 mM tastant, change in intracellular calcium; for EC50: approximately, increasing concentrations of tastant
T3 construct: expressed in transfected cells
T3 sequence (P59533 1-333 A49P/I296V): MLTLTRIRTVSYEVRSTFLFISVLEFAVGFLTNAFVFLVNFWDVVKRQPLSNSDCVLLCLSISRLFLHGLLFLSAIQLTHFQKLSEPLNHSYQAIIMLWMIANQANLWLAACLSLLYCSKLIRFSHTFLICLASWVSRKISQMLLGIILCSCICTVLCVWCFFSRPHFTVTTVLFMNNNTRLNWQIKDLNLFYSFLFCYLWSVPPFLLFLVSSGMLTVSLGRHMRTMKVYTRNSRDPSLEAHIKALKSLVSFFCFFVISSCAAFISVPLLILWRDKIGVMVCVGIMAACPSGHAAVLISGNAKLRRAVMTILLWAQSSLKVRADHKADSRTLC
Protocol: as §1, §2, §3, §4

[4] = biological target: T4, TAS2R39 (Homo sapiens, UniProt P59534); assay: Calcium fluorescence functional assay, TAS2R39 cell line with mouse Gα15; format: cell-based; conditions: for TAS2R39 bitter receptor activity (functional response): 20 mM tastant, change in intracellular calcium; for EC50: approximately, increasing concentrations of tastant
T4 construct: expressed in transfected cells
T4 sequence (P59534 1-338): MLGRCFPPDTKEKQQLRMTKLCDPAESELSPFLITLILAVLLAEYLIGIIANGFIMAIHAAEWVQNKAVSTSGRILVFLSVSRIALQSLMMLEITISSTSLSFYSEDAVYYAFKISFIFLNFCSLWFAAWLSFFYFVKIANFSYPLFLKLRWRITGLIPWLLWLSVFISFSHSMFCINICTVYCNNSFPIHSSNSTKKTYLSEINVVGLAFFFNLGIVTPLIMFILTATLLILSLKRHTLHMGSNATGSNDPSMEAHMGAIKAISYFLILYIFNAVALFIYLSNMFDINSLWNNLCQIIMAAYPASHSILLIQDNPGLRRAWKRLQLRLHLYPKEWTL
Protocol: as §1, §2, §3, §4

[5] = biological target: T2, TAS2R14; conditions: PCT/US12/61400; cited from earlier work
[6] = biological target: T5, TAS2R44 (Homo sapiens, UniProt P59538); conditions: PCT/US12/61400; cited from earlier work
T5 construct: expressed in transfected cells
T5 sequence (P59538 1-309): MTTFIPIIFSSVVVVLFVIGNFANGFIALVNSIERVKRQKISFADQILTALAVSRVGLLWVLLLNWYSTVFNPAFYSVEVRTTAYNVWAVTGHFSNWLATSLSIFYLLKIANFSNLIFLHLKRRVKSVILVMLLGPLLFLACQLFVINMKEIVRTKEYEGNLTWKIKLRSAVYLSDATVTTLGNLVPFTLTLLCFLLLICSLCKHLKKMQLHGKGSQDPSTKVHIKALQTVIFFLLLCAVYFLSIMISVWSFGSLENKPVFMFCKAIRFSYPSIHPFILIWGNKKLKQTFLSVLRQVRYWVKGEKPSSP

| Structure (SMILES) | TAS2R13 bitter receptor activity (functional response) [1] | TAS2R14 bitter receptor activity (functional response) [2] | TAS2R38 (PAV) bitter receptor activity (functional response) [3] | TAS2R39 bitter receptor activity (functional response) [4] | EC50 [1] [mM] | EC50 [2] [mM] | EC50 [3] [mM] | EC50 [4] [mM] | TAS2R14 response to stimulation, previously shown [5] | TAS2R44 response to stimulation, previously shown [6] |
| --- | --- | --- | --- | --- | --- | --- | --- | --- | --- | --- |
| O=S(=O)([O-])[O-].[K+].[K+] [potassium sulfate] | induced | induced | induced | induced | – | – | – | – | – | – |
| O=C([O-])c1ccccc1.[K+] [potassium benzoate] | induced | induced | induced | induced | 5 to 10 | 5 to 10 | 5 to 10 | 5 to 10 | – | – |
| [Cl-].[K+] [KCl] | – | – | strongly and specifically responded | strongly and specifically responded | – | – | 5 to 15 | 5 to 15 | specifically respond | specifically respond |
| O=P([O-])([O-])O.[K+].[K+] [potassium phosphate (dibasic)] | induced | induced | induced | induced | – | – | – | – | – | – |
| O=C([O-])[C@H](O)[C@@H](O)[C@H](O)[C@H](O)CO.[K+] [potassium gluconate] | induced | induced | induced | induced | – | – | – | – | – | – |
| C/C=C/C=C/C(=O)[O-].[K+] [potassium sorbate] | induced | induced | induced | induced | – | – | – | – | – | – |
| O=[N+]([O-])[O-].[K+] [potassium nitrate] | induced | induced | induced | induced | – | – | – | – | – | – |
| CC(=O)[O-].[K+] [potassium acetate] | induced | induced | did not induce | did not induce | 5 to 10 | 5 to 10 | – | – | – | – |
